Assay: Solubility in water of the isolated solid form
Assay type: physicochemical
Conditions: solid form obtained by the ethanol precipitation process

(4RS)-[4-carboxy-5,8,11-tris(carboxymethyl)-1-phenyl-2-oxa-5,8,11-triazatridecan-13-oato(5-)] calciate(3-) trisodium [Ca-BOPTA trisodium salt]
solubility of the solid form: soluble in water

Source: patent US11667601B2, “Calcium BOPTA complex” (BRACCO IMAGING S.P.A., priority 2019, dated 2023)
